Consider one compound from patent publication US7820839B2, “Taxoid-fatty acid conjugates and pharmaceutical compositions thereof” (The Research Foundation of State University of New York, priority 2003, dated 2010).

SMILES strings stand for the structures.

Data set [1] concerns pgp+ human colon tumor xenograft, DLD-1. The following applies: DLD-1. The procedure: Female severe combined immune deficient, (SCID) mice aged six to eight weeks were obtained from either the in-house breeding facility at Roswell Park Cancer Institute or Taconic (Germantown, N.Y.). All aspects of animal care complied with the Institutional Animal Care and Use Committee guidelines. […] Tumors were initiated by implantation of approximately 50 mg of non-necrotic tumor fragments on the right flank using a 12-guage trocar needle. Chemotherapy was started when the tumor was established as a palpable mass, (approximately 50-100 mm^3 size). Therapy consisted of i.v. injections through the tail vein, given four times, three days apart. Each drug treatment group or drug free vehicle consisted of 4-5 mice per group, untreated controls contained 10 mice per group.
These were used for comparison purposes. DHA-taxoids and other omega-3 fatty acid-taxoids were prepared as a 30 mg/mL stock solution in equal parts of Tween 80 (polyoxyethylene-sorbitan monooleate; purchased from Sigma Chemical Company) and absolute ethanol. To stablize the formulation of the DHA-taxoids and other omega-3 fatty acid-taxoids, antioxidants, L-ascorbic acid (3.9 mM) and α-tocopherol (2.0 mM), were added. Each stock solution was further diluted before use in 0.9% NaCl (saline) so that the appropriate concentration of each drug could be injected i.v. via the tail vein, in a volume of approximately 0.4 mL for a 20 g mouse. Each drug was administered once a day on […].
For each animal, the tumor length (1) and width (w), each in mm, were measured using electronic calipers and recorded every 3-4 days. Tumor volume (v), in mm^3, was calculated using the formula: v=0.4(l×w^2). The time in days to the pre-determined target tumor volume of 600 mm^3 was linearly interpolated from a plot of log(volume) versus time. Statistically significant differences in tumor volumes between control and drug-treated mice were determined by the Cox-Mantel test. […] All statistical tests were two-sided.

Data set [2] relates to human colon carcinoma SW-620 xenografts. The settings on record: SW-620 xenografts in mice; cited from earlier work.
[3] abbreviates: total dose 150 mg/kg (50 mg/kg/inj) i.v., SCID mice.

For the compound `CC(=O)O[C@H]1C(=O)[C@@]2(C)[C@H]([C@H](OC(=O)c3ccccc3)[C@]34OC(=O)O[C@H]3[C@H](OC(=O)[C@H](O)[C@H](CC(C)C)NC(=O)OC(C)(C)C)C(C)=C1C4(C)C)[C@]1(OC(C)=O)CO[C@@H]1C[C@@H]2O` [IDN-5109, ortataxel, reference compound], in data set [1] (total dose 150 mg/kg (50 mg/kg/inj) i.v. day 5, 8 and 11, SCID mice), the “Days to 600 mm^3 Median” value worked out at 46 days. Further, in data set [1] (setting [3]), the “Growth Delay” value stood at 32 days and the “Toxicity: number of animals who either died or lost greater than 20% body weight” value is recorded as 0. Also, the “Tumor free mice/Group” value in data set [1] (tumors less than 600 mm^3 on day 201, total dose 150 mg/kg (50 mg/kg/inj) i.v.) is listed as 0/3. Further, in data set [2], the “activity against xenografts (in words)” value is “impressive activity”.
